Tested on: adipocyte fatty acid-binding protein aP2
Experiment: aP2 protein expression in LPS induced THP-1 monocyte-macrophage cells (immuno-western blot)
Assay type: cell-based, human
Settings: THP-1 cells pre-treated 2 h, then LPS; extracts 5 or 10 μg/ml, 5-Loxin 5 μg/ml, montelukast 1 μM, NDGA 10 μM
Procedure: In this experiment, THP-1 human monocyte-macrophage cells were pre-treated with 5 or 10 μg/ml of each ingredient for 2 h and thereafter printed with LPS to induce the inflammatory response. The cellular proteins were extracted by cell lysis buffer and subjected to Immuno-Western blot to detect the modulation of expression of aP2 protein.
The cellular proteins were extracted by cell lysis buffer and subjected to immuno-western blot to detect the modulation of expression of aP2 protein.
Similar experiment was also conducted on Aegle marmelos, Zingiber officinale and G. mangostana extracts.

## CC(Cc1ccc(O)c(O)c1)C(C)Cc1ccc(O)c(O)c1 (stereo not shown) [NDGA, Nordihydroguaiaretic Acid]
  inhibition of LPS induced aP2 protein expression: significantly reduced
